The NIST ThermoML archive (doi:10.1021/je800026p)

Assay: xn = mol fraction of the nth substance listed
Conditions: 101 kPa, Liquid; for mass density: Vibrating tube method; for speed of sound: Sing-around technique in a fixed-path interferometer

CCCCCCOCCOCCO [2-(2-hexyloxyethoxy)ethanol] + CCCCNCCCC
Conditions	mass density, 298.15 K [kg/m3]	mass density, 303.15 K [kg/m3]	mass density, 308.15 K [kg/m3]	speed of sound, 303.15 K [m/s]	speed of sound, 308.15 K [m/s]
x1 = 0.0974	779.614	775.187	771.079	1243.7	1225.3
x1 = 0.1441	789.859	785.667	781.545	1251	1232.2
x1 = 0.1908	799.885	795.785	791.662	1258.2	1239.2
x1 = 0.253	812.825	808.731	804.6	1267.7	1248.7
x1 = 0.2986	821.948	817.838	813.671	1274.5	1255.5
x1 = 0.3606	833.834	829.692	825.52	1283.4	1264.8
x1 = 0.4018	841.423	837.274	833.078	1289.3	1270.9
x1 = 0.4584	851.46	847.291	843.095	1297	1279.1
x1 = 0.5091	860.074	855.914	851.724	1303.8	1286.2
x1 = 0.5435	865.751	861.602	857.401	1308.2	1290.8
x1 = 0.587	872.72	868.58	864.406	1313.6	1296.5
x1 = 0.6097	876.278	872.165	867.972	1316.4	1299.4
x1 = 0.6572	883.547	879.461	875.302	1322	1305
x1 = 0.7023	890.259	886.201	882.052	1327	1310.1
x1 = 0.7451	896.459	892.397	888.281	1331.6	1314.5
x1 = 0.8144	906.103	902.062	897.98	1338.5	1320.9
x1 = 0.8675	913.137	909.095	905.045	1343.3	1325
x1 = 0.9083	918.3	914.27	910.231	1346.8	1327.7
x1 = 0.9414	922.323	918.281	914.269	1349.3	1329.5
